In the NIST ThermoML archive (doi:10.1021/je8006474):

Assay: xn = mol fraction of the nth substance listed
Settings: Pycnometric method

Fc1cc(F)cc(F)c1 [1,3,5-trifluorobenzene] + CCn1cc[n+](C)c1.O=S(=O)([N-]S(=O)(=O)C(F)(F)F)C(F)(F)F
Settings	molar volume [m3/mol]
283.5 K, Liquid mixture 1, x1 = 0.497	0.0001754
283.5 K, Liquid mixture 2, x1 = 1	0.0001013
298.2 K, Liquid mixture 1, x1 = 0.498	0.0001762
298.2 K, Liquid mixture 2, x1 = 1	0.0001035
316.6 K, Liquid mixture 1, x1 = 0.487	0.000179
316.6 K, Liquid mixture 2, x1 = 1	0.0001057
333.2 K, Liquid mixture 1, x1 = 0.482	0.0001815
333.2 K, Liquid mixture 2, x1 = 1	0.000108
353.1 K, Liquid mixture 1, x1 = 0.478	0.000183
353.1 K, Liquid mixture 2, x1 = 1	0.0001108
373 K, Liquid mixture 1, x1 = 0.482	0.0001846
373 K, Liquid mixture 2, x1 = 1	0.0001144

Fc1cc(F)c(F)cc1F [1,2,4,5-tetrafluorobenzene] + CCn1cc[n+](C)c1.O=S(=O)([N-]S(=O)(=O)C(F)(F)F)C(F)(F)F
Settings	molar volume [m3/mol]
283.3 K, Liquid mixture 1, x1 = 0.736	0.0001422
283.3 K, Liquid mixture 2, x1 = 0.999	0.000103
298.2 K, Liquid mixture 1, x1 = 0.731	0.0001449
298.2 K, Liquid mixture 2, x1 = 0.999	0.0001047
315.5 K, Liquid mixture 1, x1 = 0.725	0.0001473
315.5 K, Liquid mixture 2, x1 = 1	0.0001074
333.2 K, Liquid mixture 1, x1 = 0.718	0.0001508
333.2 K, Liquid mixture 2, x1 = 1	0.0001095
353.1 K, Liquid mixture 1, x1 = 0.71	0.0001551
353.1 K, Liquid mixture 2, x1 = 1	0.0001124
373 K, Liquid mixture 1, x1 = 0.702	0.0001595
373 K, Liquid mixture 2, x1 = 1	0.0001157

Fc1ccc(F)cc1 [1,4-difluorobenzene] + CCn1cc[n+](C)c1.O=S(=O)([N-]S(=O)(=O)C(F)(F)F)C(F)(F)F
Settings	molar volume [m3/mol]
283.4 K, Liquid mixture 1, x1 = 0.816	0.0001239
283.4 K, Liquid mixture 2, x1 = 1	9.76e-05
294.4 K, Liquid mixture 1, x1 = 0.814	0.0001255
294.4 K, Liquid mixture 2, x1 = 1	9.88e-05
316.2 K, Liquid mixture 1, x1 = 0.81	0.0001288
316.2 K, Liquid mixture 2, x1 = 1	0.000101
343.2 K, Liquid mixture 1, x1 = 0.807	0.0001337
343.2 K, Liquid mixture 2, x1 = 0.999	0.0001038
353.1 K, Liquid mixture 1, x1 = 0.804	0.0001354
353.1 K, Liquid mixture 2, x1 = 0.999	0.000105
373 K, Liquid mixture 1, x1 = 0.799	0.0001387
373 K, Liquid mixture 2, x1 = 0.999	0.0001069

Fc1cc(F)c(F)c(F)c1 [1,2,3,5-tetrafluorobenzene] + CCn1cc[n+](C)c1.O=S(=O)([N-]S(=O)(=O)C(F)(F)F)C(F)(F)F
Settings	molar volume [m3/mol]
283.5 K, Liquid mixture 1, x1 = 0.659	0.0001523
283.5 K, Liquid mixture 2, x1 = 1	0.0001053
298.3 K, Liquid mixture 1, x1 = 0.652	0.0001562
298.3 K, Liquid mixture 2, x1 = 1	0.0001069
316.7 K, Liquid mixture 1, x1 = 0.647	0.0001579
316.7 K, Liquid mixture 2, x1 = 1	0.0001096
333.2 K, Liquid mixture 1, x1 = 0.638	0.0001605
333.2 K, Liquid mixture 2, x1 = 1	0.0001119
353.1 K, Liquid mixture 1, x1 = 0.631	0.000164
353.1 K, Liquid mixture 2, x1 = 1	0.0001149
373 K, Liquid mixture 1, x1 = 0.623	0.0001688
373 K, Liquid mixture 2, x1 = 1	0.000118
